Measured values reported in publication PMC5561493 (Journal of Clinical Pharmacology, 2017).
“And” between values parts separate entries of the source, which are not always exact repeats. Identical values can stand only once. Like-named read-outs stand apart in the source and are kept apart here.

Key:
[1] = tested on: cytochrome P450 enzymes; settings: in decreasing order of relative contributions; cited from earlier work
[2] = 1.7 mg/m^2 dose level; cited from earlier work
[3] = 1.6 mg/m^2 dose level; cited from earlier work
[4] = tested on: blood 20S proteasome activity; settings: 1.2 and 1.6 mg/m^2 IV; cited from earlier work
[5] = tested on: CYP2C19; settings: cited from earlier work
[6] = Population PK analysis of bortezomib in pediatric ALL/AML patients; type: in vivo, human; settings: for half-life: human, plasma, intravenous, 1.3 mg/m^2, half-life, geometric mean (%CV)
[7] = adult patients, cited from earlier work
[8] = tested on: efflux pumps; settings: in vitro transport studies; ref Takeda, data on file; cited from earlier work
[9] = varying grades of renal impairment; cited from earlier work
[10] = tested on: CYP3A; settings: coadministration of ketoconazole; cited from earlier work
[11] = in vitro transport studies; ref Takeda, data on file; cited from earlier work
[12] = final population PK model, bootstrap, 1.3 mg/m^2 IV repeat dose

Question: For `CC(C)C[C@H](NC(=O)[C@H](Cc1ccccc1)NC(=O)c1cnccn1)B(O)O` [bortezomib], which “CYP enzymes mediating hepatic microsomal metabolism” value [1] is on record?
Answer: The value was “primary involvement of CYPs 3A4, 2C19, and 1A2”.

Question: And the dose-limiting toxicities [2]?
Answer: The dose-limiting toxicities was “Two dose‐limiting toxicities (grade 3 confusion and grade 4 hypotension with fever)”.

Question: And the dose-limiting toxicities [3]?
Answer: Its dose-limiting toxicities is 2 dose‐limiting toxicities of thrombocytopenia.

Question: And the “inhibition of blood 20S proteasome activity” value [4]?
Answer: The value was “Dose‐dependent inhibition”.

Question: What about the “time of maximal inhibition of blood 20S proteasome activity after dosing” value [4] of the same compound?
Answer: The value was at most 1 h.

Question: And the “effect of omeprazole coadministration on bortezomib PK” value [5]?
Answer: Its value is “did not alter bortezomib PK”.

Question: And the “clearance, geometric mean (%CV)” value ([6]; all patients (N = 104), 2-16 y, individual estimates, 1.3 mg/m^2 IV repeat dose)?
Answer: The value was 7.79 (25%) L/(h·m^2).

Question: What about the “volume of distribution at steady-state, geometric mean (%CV)” value ([6]; all patients (N = 104), sum of V1, V2, V3) of the same compound?
Answer: The value was 834 (39%) L/m^2.

Question: What about the “Interindividual variability (CV) of CL” value ([6]; base model) of the same compound?
Answer: The value was 41.2%.

Question: What about the “Interindividual variability (CV) of Q3” value ([6]; base model) of the same compound?
Answer: Its value is 38.3%.

Question: What about the “Interindividual variability (CV) of V1” value ([6]; base model) of the same compound?
Answer: The value was 50.7%.

Question: What about the “Interindividual variance of CL” value ([6]; final model) of the same compound?
Answer: The value was 29.7 %CV.

Question: What about the “Interindividual variance of Q3” value ([6]; final model) of the same compound?
Answer: The value was 29.8 %CV.

Question: What about the “Interindividual variance of V1” value ([6]; final model) of the same compound?
Answer: Its value is 34.6 %CV.

Question: And the “V1 (central volume), population median” value [6, 12]?
Answer: The value was 10.0 L.

Question: And the “V2 (peripheral volume 1), population median” value [6, 12]?
Answer: Its value is 32.5 L.

Question: What about the “V3 (peripheral volume 2), population median” value [6, 12] of the same compound?
Answer: Its value is 975 L.

Question: What about the “BSA effect on Q3 (exponent)” value ([6]; final population PK model, power model) of the same compound?
Answer: The value was 0.75.

Question: And the half-life ([6]; α disposition phase, all patients (N = 104))?
Answer: The half-life was 0.103 h.

Question: What about the half-life ([6]; β disposition phase, all patients (N = 104)) of the same compound?
Answer: Its half-life is 1.58 h.

Question: And the half-life ([6]; γ (terminal/elimination) disposition phase, all patients (N = 104))?
Answer: The half-life was 100 h.

Question: And the “BSA-normalized clearance, mean (%CV)” value ([6]; patients 2 to 11 years old (N = 62))?
Answer: The value was 8.11 (25%) L/(h·m^2) and 8.11 L/(h·m^2).

Question: And the “BSA-normalized clearance, mean (%CV)” value ([6]; patients aged 12 to 16 years (N = 42))?
Answer: Its value is 7.94 (25%) L/(h·m^2) and 7.94 L/(h·m^2).

Question: What about the “BSA-normalized clearance, mean (%CV)” value ([7]; 1.0 mg/m^2 dose) of the same compound?
Answer: Its value is 12.9 (70%) L/(h·m^2).

Question: And the “BSA-normalized clearance, mean (%CV)” value ([7]; 1.3 mg/m^2 dose)?
Answer: The value was 14.9 (63%) L/(h·m^2).

Question: What about the “substrate for efflux pumps” value [8] of the same compound?
Answer: Its value is “not a substrate for efflux pumps”.

Question: What about the “effect of renal impairment on bortezomib clearance” value [9] of the same compound?
Answer: The value was “did not alter bortezomib clearance”.

Question: What about the “increase in bortezomib area under the concentration-time curve” value [10] of the same compound?
Answer: The value was 35%.

Question: What about the apparent permeability [11] of the same compound?
Answer: The apparent permeability was “high apparent permeability”.
